# ± gives the uncertainty stated by the source.
# Assay: xn = mol fraction of the nth substance listed
smiles,measurement,setting,value
CC(C)C(=O)O + O,viscosity,"304.12 K, 101.33 kPa, x1 = 0.11",2.07 ± 0.016 mPa·s
same,viscosity,"305.07 K, 101.33 kPa, x1 = 0.11",2.003 ± 0.015 mPa·s
same,viscosity,"305.15 K, 101 kPa, x1 = 0.0106",0.8833 ± 0.0056 mPa·s
same,viscosity,"305.15 K, 101 kPa, x1 = 0.0222",0.9974 ± 0.0062 mPa·s
same,viscosity,"305.15 K, 101 kPa, x1 = 0.0348",1.127 ± 0.0069 mPa·s
same,viscosity,"305.15 K, 101 kPa, x1 = 0.0486",1.284 ± 0.0077 mPa·s
same,viscosity,"305.15 K, 101 kPa, x1 = 0.0545",1.355 ± 0.0081 mPa·s
same,viscosity,"305.15 K, 101 kPa, x1 = 0.0638",1.469 ± 0.0087 mPa·s
same,viscosity,"305.15 K, 101 kPa, x1 = 0.0737",1.59 ± 0.0094 mPa·s
same,viscosity,"305.15 K, 101 kPa, x1 = 0.0806",1.673 ± 0.0098 mPa·s
same,viscosity,"305.15 K, 101 kPa, x1 = 0.0915",1.799 ± 0.01 mPa·s
same,viscosity,"305.15 K, 101 kPa, x1 = 0.1114",1.993 ± 0.011 mPa·s
same,viscosity,"305.15 K, 101 kPa, x1 = 0.12",2.06 ± 0.012 mPa·s
same,viscosity,"305.15 K, 101 kPa, x1 = 0.129",2.117 ± 0.012 mPa·s
same,viscosity,"305.15 K, 101 kPa, x1 = 0.1433",2.18 ± 0.013 mPa·s
same,viscosity,"305.15 K, 101 kPa, x1 = 0.1698",2.271 ± 0.013 mPa·s
same,viscosity,"305.15 K, 101 kPa, x1 = 0.1999",2.339 ± 0.013 mPa·s
same,viscosity,"305.15 K, 101 kPa, x1 = 0.2347",2.388 ± 0.014 mPa·s
same,viscosity,"305.15 K, 101 kPa, x1 = 0.323",2.423 ± 0.014 mPa·s
same,viscosity,"305.15 K, 101 kPa, x1 = 0.4499",2.32 ± 0.013 mPa·s
same,viscosity,"305.15 K, 101 kPa, x1 = 0.4996",2.244 ± 0.013 mPa·s
same,viscosity,"305.15 K, 101 kPa, x1 = 0.6404",1.959 ± 0.011 mPa·s
same,viscosity,"305.15 K, 101 kPa, x1 = 0.7953",1.597 ± 0.0094 mPa·s
same,viscosity,"305.15 K, 101 kPa, x1 = 0.9529",1.214 ± 0.0073 mPa·s
same,viscosity,"306.72 K, 101.33 kPa, x1 = 0.11",1.907 ± 0.014 mPa·s
same,viscosity,"307.67 K, 101.33 kPa, x1 = 0.11",1.855 ± 0.014 mPa·s
same,viscosity,"308.15 K, 101 kPa, x1 = 0.0106",0.8203 ± 0.0052 mPa·s
same,viscosity,"308.15 K, 101 kPa, x1 = 0.0222",0.9263 ± 0.0058 mPa·s
same,viscosity,"308.15 K, 101 kPa, x1 = 0.0348",1.049 ± 0.0065 mPa·s
same,viscosity,"308.15 K, 101 kPa, x1 = 0.0486",1.194 ± 0.0072 mPa·s
same,viscosity,"308.15 K, 101 kPa, x1 = 0.0545",1.259 ± 0.0076 mPa·s
same,viscosity,"308.15 K, 101 kPa, x1 = 0.0638",1.361 ± 0.0082 mPa·s
same,viscosity,"308.15 K, 101 kPa, x1 = 0.0737",1.468 ± 0.0087 mPa·s
same,viscosity,"308.15 K, 101 kPa, x1 = 0.0806",1.541 ± 0.0091 mPa·s
same,viscosity,"308.15 K, 101 kPa, x1 = 0.0915",1.651 ± 0.0097 mPa·s
same,viscosity,"308.15 K, 101 kPa, x1 = 0.1114",1.827 ± 0.011 mPa·s
same,viscosity,"308.15 K, 101 kPa, x1 = 0.12",1.878 ± 0.011 mPa·s
same,viscosity,"308.15 K, 101 kPa, x1 = 0.129",1.927 ± 0.011 mPa·s
same,viscosity,"308.15 K, 101 kPa, x1 = 0.1433",1.99 ± 0.011 mPa·s
same,viscosity,"308.15 K, 101 kPa, x1 = 0.1698",2.077 ± 0.012 mPa·s
same,viscosity,"308.15 K, 101 kPa, x1 = 0.1999",2.144 ± 0.012 mPa·s
same,viscosity,"308.15 K, 101 kPa, x1 = 0.2347",2.195 ± 0.013 mPa·s
same,viscosity,"308.15 K, 101 kPa, x1 = 0.323",2.24 ± 0.013 mPa·s
same,viscosity,"308.15 K, 101 kPa, x1 = 0.4499",2.156 ± 0.012 mPa·s
same,viscosity,"308.15 K, 101 kPa, x1 = 0.4996",2.089 ± 0.012 mPa·s
same,viscosity,"308.15 K, 101 kPa, x1 = 0.6404",1.837 ± 0.011 mPa·s
same,viscosity,"308.15 K, 101 kPa, x1 = 0.7953",1.504 ± 0.0089 mPa·s
same,viscosity,"308.15 K, 101 kPa, x1 = 0.9529",1.155 ± 0.007 mPa·s
same,viscosity,"311.15 K, 101 kPa, x1 = 0.0106",0.765 ± 0.0049 mPa·s
same,viscosity,"311.15 K, 101 kPa, x1 = 0.0222",0.8626 ± 0.0054 mPa·s
same,viscosity,"313.15 K, 101.33 kPa, x1 = 0.011",0.767 ± 0.0077 mPa·s
same,viscosity,"313.15 K, 101.33 kPa, x1 = 0.0222",0.907 ± 0.0091 mPa·s
same,viscosity,"313.15 K, 101.33 kPa, x1 = 0.0348",0.965 ± 0.0097 mPa·s
same,viscosity,"313.15 K, 101.33 kPa, x1 = 0.0486",1.094 ± 0.011 mPa·s

# Source: the CheMixHub viscosity set
